Here are results for 136 compounds from the pKa sets of Baltruschat and Czodrowski (2020).

A word on the pKa: it is the negative logarithm of the acid dissociation constant. Lower therefore signals a stronger acid or weaker base.

For the first series the following is noted: acidic group.
As to `CC(=O)CC(=O)C(F)(F)F`, the pKa came to 6.09.

In the case of `CC(=O)OO`, the pKa turned out to be 8.19.

Compound `CC1SC(C)(C(=O)O)OC1=O` (centres undefined) showed a pKa of 1.94.

In turn, `Cc1c(C)c2c(c(C)c1OP(=O)([O-])O)CCC(C)(CCC[C@@H](C)CCC[C@@H](C)CCCC(C)C)O2` (some centres undefined) displayed a pKa of 9.44.

As for `O=C(O)C[N+](=O)[O-]`, the pKa was 1.63.

`CC(C)(C)C(=O)NO` had a pKa of 9.59.

`O=C(c1ccccc1)c1cccc([N+](=O)[O-])c1C(=O)O` had a pKa of 2.39.

For the compound `C[n+]1ccncc1O`, the pKa was -0.04.

Regarding `CCCCSCC(=O)O`, the pKa stood at 3.81.

For the compound `O=C(O)c1csc(Br)n1`, the pKa was determined as 3.28.

As to `Cc1cc(S(=O)(=O)N(CCO)CCO)cc(C)c1O`, the pKa worked out at 8.25.

Consider `Sc1nc2cc3ccccc3cc2[nH]1`, for which the pKa turned out to be 9.84.

The compound `Nc1cc2ccccc2cc1O` gave a pKa of 9.35.

`CCOC(=O)/C(C)=N/O` displayed a pKa of 9.64.

`c1ccc(-c2nc3ccccc3[nH]2)nc1` gave a pKa of 12.1.

In the case of `CN1C(=O)C2(CCCCC2)NC1=S`, the pKa amounted to 11.2.

On to `Cn1cnc2nc(N)[nH+]c(O)c21`, for which the pKa amounted to 3.57.

`O=C1CCCC(=O)C1` registered a pKa of 5.26.

With `[O-]c1ncncc1O`, the pKa was 11.6.

`CCC[NH2+]CCS` had a pKa of 7.92.

`O=[Se](O)c1ccccc1-c1ccccc1` registered a pKa of 4.67.

In turn, `Cc1cc(C)c([N+](=O)[O-])c(C)c1O` gave a pKa of 8.98.

For the compound `CS(=O)(=O)NC(N)=O`, the pKa was 5.1.

`CCOC(=O)C(Cc1cccc(C)c1)C(C)=O` (centres undefined) gave a pKa of 11.9.

Compound `O/C(=C/c1ccccn1)c1ccccc1` had a pKa of 12.2.

`[O-]c1ccc(O)cc1`: the pKa amounted to 11.6.

`NC(=O)[C@@H](N)Cc1ccccc1` showed a pKa of 7.26.

In turn, `C/C(=N\O)C(=O)CO` returned a pKa of 9.16.

The compound `C[NH+](C)Cc1cc(-c2ccccc2)cc(C[NH+](C)C)c1O` returned a pKa of 5.65.

For the compound `CC(Cl)C(=O)O` (centres undefined), the pKa is 2.88.

Regarding `Cc1cnc(NS(=O)(=O)c2ccc(N)cc2)nc1C`, the pKa amounted to 6.

In turn, `CNc1cccc[n+]1O` registered a pKa of 2.61.

With `CCc1n[nH]c(CC)n1`, the pKa came to 10.2.

In the case of `O=C(O)c1cccc(C2CC2)c1`, the pKa was 4.28.

Take `Nc1ccccc1O`: the pKa worked out at 9.71.

For the compound `Clc1ccccc1-c1nnn[nH]1`, the pKa stood at 3.69.

With `CC(=O)C1CCCC1=O` (centres undefined), the pKa was 7.82.

As for `C/C(=C(/S)CCO)N(C=O)Cc1cnc(C)nc1N`, the pKa amounted to 11.4.

Consider `Cc1ccc(C(=O)O)cc1[N+](=O)[O-]`, for which the pKa was determined as 3.62.

In the case of `O=C(O)C[C@]1(O)C[C@@H]2CC[C@H]1C2`, the pKa came out at 4.46.

The compound `CC1(C)N=C(C(=O)CC(=O)C(F)(F)F)C(C)(C)N1O` gave a pKa of 4.66.

Compound `CONc1cc(=O)n(C)c(=O)n1C` returned a pKa of 10.6.

`Nc1ccc(S(=O)(=O)Nc2nccs2)cc1/N=N/c1ccccc1` displayed a pKa of 5.85.

Regarding `N#C[C@H]1CCCC[C@@H]1C(=O)O`, the pKa came to 3.86.

`Nc1ccc(S(=O)(=O)Nc2ccc(Br)nc2)cc1` came in with a pKa of 7.12.

Compound `COC(=S)C1c2ccccc2-c2ccccc21` had a pKa of 7.4.

As to `Fc1ccc(NC(=S)c2cccc(Br)c2)cc1`, the pKa came out at 10.3.

Regarding `Cc1ccc2ccc(O)cc2c1`, the pKa amounted to 9.52.

As for `Cc1ccc(O)c(Cc2cc(C)cc([N+](=O)[O-])c2[O-])c1`, the pKa stood at 11.7.

`[NH3+][C@H]1CCC[C@@H](C(=O)O)C1` yielded a pKa of 3.7.

As to `CC(=O)C(C(C)=O)C(C)C`, the pKa is 12.8.

As to `C[n+]1c2ccccc2cc2cc(N)ccc21`, the pKa was 9.8.

`NS(=O)(=O)c1ccc(P(=O)([O-])O)cc1` came in with a pKa of 6.38.

`Nc1ccc(S(=O)(=O)Nc2ncco2)cc1`: the pKa was 6.5. The pKa values of the last two compounds are within 0.2 log units of each other.

Compound `N#CC(c1ccc(Cl)cc1)c1ccc([N+](=O)[O-])cc1` (centres undefined) displayed a pKa of 10.7.

In turn, `SCc1c[nH]cn1` had a pKa of 9.54.

With `Oc1cc[nH+]cc1O`, the pKa was found to be 3.6.

The compound `O=[N+]([O-])c1ccc2c(c1)Cc1cc(O)ccc1-2` displayed a pKa of 9.01.

As for `O=C(O)/C=C/c1c[nH]c[nH+]1`, the pKa worked out at 3.5.

`C[C@@H]([NH3+])C(=O)N1CCC[C@H]1C(=O)O` returned a pKa of 3.04.

`N#CC(C(=O)O)C1CCCCC1` (centres undefined) returned a pKa of 2.37.

With `Nc1ncc2[nH]cnc2n1`, the pKa was found to be 9.93.

`COc1cccc(/C=C/C(=O)O)c1` gave a pKa of 4.38.

On to `NC(=O)CN(CCN(CC(N)=O)Cc1ccccc1O)Cc1ccccc1O`, for which the pKa was 10.2.

In turn, `CC(=O)NS(=O)(=O)c1ccsc1C(=O)O` had a pKa of 3.1.

The same series, now with this note: basic group.
In turn, `CC1(N)C[C@]1(C)N` (some centres undefined) showed a pKa of 9.03.

With `Cn1ccc(N)n1`, the pKa is 3.81.

`Nc1cccc2c([N+](=O)[O-])cccc12` registered a pKa of 2.8.

`CC(C)([NH3+])CN` displayed a pKa of 6.79.

Take `COc1ccnc2c1ccc1c(OC)ccnc12`: the pKa is 6.45.

`CCc1cc(Cl)n(C)c2nc3ccccc3c1-2` had a pKa of 7.46.

The compound `Cc1ccc([N+](=O)[O-])cc1/C(=N/CCC[NH+](C)C)c1ccccc1` showed a pKa of 3.14.

Take `Cc1cc(=O)n(-c2ccccc2)n1C`: the pKa was 1.45.

In the case of `CC(C)NCCNC(C)C`, the pKa worked out at 10.4.

On to `NCCCCCCO`, for which the pKa was 10.6.

Turning to `N/C(CC/C(N)=[NH+]/O)=N\O`, the pKa was determined as 3.11.

On to `NCCBr`, for which the pKa turned out to be 8.5.

`CN(C)CCC(C#N)(c1ccccc1)c1ccccc1` displayed a pKa of 8.31.

In the case of `c1ccc(-c2nc3ccccc3[nH]2)nc1`, the pKa was found to be 4.41.

Turning to `CC1=CC(=C2C=CC=CC=C2)C=C(C)C1=O`, the pKa amounted to 6.26.

`[O-]c1ncncc1O` came in with a pKa of 7.48.

Regarding `Cc1ccc(-c2cnc(-c3ccc(Cl)cc3)o2)cc1`, the pKa was found to be 0.58.

`Cc1ccc(CCN)cc1` displayed a pKa of 9.78.

The compound `NCCc1c[nH]cn1` displayed a pKa of 9.87.

As to `CC1CNCc2ccccc2OCCOc2ccccc2CN1` (centres undefined), the pKa amounted to 9.41.

`COc1ccc2ccccc2n1` gave a pKa of 3.17.

Compound `CN1C(=N)Cc2ccccc21` yielded a pKa of 9.6.

`CC1(C)CCC(C2CCC(C)(C)N2)N1` (centres undefined) displayed a pKa of 10.3.

Consider `O/C(=C/c1ccccn1)c1ccccc1`, for which the pKa came to 3.57.

Compound `NNCCc1ccccc1` returned a pKa of 7.25.

`c1cnc2ccc3[nH+]cccc3c2c1` showed a pKa of 2.4.

Compound `CNc1c2ccccc2nc2cccc([N+](=O)[O-])c12` registered a pKa of 7.2.

The compound `COc1ccc(N)cc1C(=O)N[C@@H]1C[C@H]2CC[C@@H](C1)N2Cc1ccccc1` gave a pKa of 8.86.

For `NCCCCc1cccnc1`, the pKa was found to be 10.2.

Regarding `N=C(c1ccccc1)c1cccc(O)c1`, the pKa came out at 6.92.

As for `Nc1ccc(-c2ncc(-c3ccccc3)o2)cc1`, the pKa stood at 3.01.

Compound `Cc1cc(N)ccc1C[NH3+]` showed a pKa of 4.26.

Compound `FC(F)(F)c1cccc2ncccc12` displayed a pKa of 3.09.

`CCOP(=O)(CN1CCOCC1)OCC` displayed a pKa of 4.

For `CCc1ccc(/N=N/c2ccc(N(C)C)cc2)cc1CC`, the pKa was 2.58.

`Nc1cccc2[nH]ncc12` yielded a pKa of 3.29.

`C[NH2+]CC(=O)NCCc1c[nH]cn1` yielded a pKa of 6.77.

Turning to `N[C@@H]1C[C@H]2CCCC[C@@H]2C[C@@H]1[NH3+]`, the pKa came out at 6.36.

As to `COC(=O)CN`, the pKa was 7.64.

`C=CCNc1ccccc1` came in with a pKa of 4.17.

Consider `COc1cc2c(cc1O)CCN1Cc3c(ccc(OC)c3OC)C[C@@H]21`, for which the pKa was 9.55.

As for `Nn1nnnc1-c1ccccc1`, the pKa was -0.62.

The compound `COCc1ccccc1CN(C)C` came in with a pKa of 9.19.

With `Cc1cccc(C)c1NC(=O)CN1CCCCC1`, the pKa was 7.6.

`Nc1ccccc1O` came in with a pKa of 4.55.

`Cc1cnc2ccccc2n1` gave a pKa of 0.95.

Take `C/C(=C(/S)CCO)N(C=O)Cc1cnc(C)nc1N`: the pKa is 4.19.

Regarding `ONc1ccc(Cl)cc1`, the pKa was 2.58.

As for `CCCN(CC(C)O)CC(C)O` (centres undefined), the pKa came out at 8.9.

Take `C[NH+](C)CCC/N=C(\c1ccccc1)c1ccc2ccccc2c1`: the pKa worked out at 5.1.

In turn, `N[C@H]1CCC[C@@H]1O` showed a pKa of 9.28.

`Nc1nnnn1-c1cccc(Cl)c1` registered a pKa of 0.7.

Take `[O-]c1c(Cl)cc(Cl)c(Cl)c1CN1CCCCC1`: the pKa amounted to 10.3.

`CC(C)(C)c1cccc(C(C)(C)C)n1` showed a pKa of 4.95.

The compound `CCNCCNCC` gave a pKa of 10.5.

Compound `c1cc2c(cn1)CCCC2` gave a pKa of 6.65.

In turn, `CNCCC[NH2+]C` displayed a pKa of 8.68.

In the case of `Cc1cc(C)c2nccc(NCCC[NH+](C)C)c2c1[N+](=O)[O-]`, the pKa came to 6.37.

As for `Nc1cccc(Br)c1`, the pKa stood at 3.41.

The compound `CC1(C)CC(NCCO)CC(C)(C)N1` came in with a pKa of 10.5.

The compound `Fc1cccnc1` gave a pKa of 2.97.

In the case of `Nc1ccnc(-c2ccccn2)c1`, the pKa came out at 8.1.

`C(=N\c1ccccc1)/Nc1ccccc1` yielded a pKa of 6.3.

With `c1ccc2nc3ccc4ccccc4c3cc2c1`, the pKa worked out at 4.39.

`SCc1c[nH]cn1`: the pKa was 6.54.

`CCc1nc(C)c[nH]1` displayed a pKa of 8.5.

As to `CCSC(=N)c1ccccc1`, the pKa stood at 6.05.

`Cc1ccc2c(c1)sc(-c1ccc(N(C)C)cc1)[n+]2C` had a pKa of 2.69.

The compound `Cc1cccnc1C` had a pKa of 6.57.

In turn, `O=C([O-])CN(CC(=O)[O-])Cc1cc([N+](=O)[O-])ccc1[O-]` yielded a pKa of 10.2.

As to `CC[C@]12CCCN3CCc4c(n(c5ccccc45)CC1)[C@@H]32`, the pKa was found to be 6.9.

For `C[C@H]1CCC2CC[C@H](C)N21`, the pKa was 11.7.

`CC1=C(CC(C)NCC(O)c2ccc(Br)cc2)CCC1(C)C` (centres undefined) displayed a pKa of 8.57.

On to `Nc1ncc2[nH]cnc2n1`, for which the pKa came to 3.8.

As to `CC(O)[C@@H]1CN[C@H](C(=O)[O-])[C@H]1CC(=O)[O-]` (some centres undefined), the pKa is 10.1.

Turning to `CCOc1ccc(/N=C/N(C)C)cc1`, the pKa worked out at 9.24.

Take `CSCCN`: the pKa was found to be 9.41. The pKa values of the last two compounds are within 0.2 log units of each other.

In turn, `ClCC1CC2CCN1CC2` (centres undefined) showed a pKa of 9.68.

`NC(=O)CN(CCN(CC(N)=O)Cc1ccccc1O)Cc1ccccc1O` came in with a pKa of 6.54.
